Measured values as given in ChEMBL document CHEMBL5120889, “Dolabrane-Type Diterpenoids with Immunosuppressive Activity from Koilodepas hainanense” (J Nat Prod, 2022).

What was measured:
[1] = Immunosuppressive activity in BALB/c mouse splenocytes assessed as reduction in ConA-induced mouse T-lymphocytes proliferation incubated for 8 hrs by beta scintillation counting based [3H]thymidine incorporation assay; assay type: functional; conditions: T-cell
[2] = Cytotoxicity in BALB/c mouse Splenocyte assessed as reduction in cell viability incubated for 48 hrs by MTT assay; assay type: toxicity, cell-based; conditions: splenocytes
[3] = Selectivity index, ratio of CC50 for cytotoxicity in BALB/c mouse splenocytes to IC50 for immunosuppressive activity in BALB/c mouse splenocytes assessed as reduction in LPS-induced mouse B-lymphocytes proliferation; assay type: toxicity, cell-based; conditions: read-out: Ratio CC50/IC50
[4] = Selectivity index, ratio of CC50 for cytotoxicity in BALB/c mouse splenocytes to IC50 for immunosuppressive activity in BALB/c mouse splenocytes assessed as reduction in ConA-induced mouse T-lymphocytes proliferation; assay type: toxicity, cell-based; conditions: read-out: Ratio CC50/IC50
B-cell line = assay: Immunosuppressive activity in BALB/c mouse splenocytes assessed as reduction in LPS-induced mouse B-lymphocytes proliferation incubated for 8 hrs by beta scintillation counting based [3H]thymidine incorporation assay; assay type: functional

SMILES	IC50 [1]	CC50 at 48 h [2]	selectivity ratio [3]	selectivity ratio [4]	IC50 (B-cell line; read-out: IC50)	IC50 (B-cell line)
CC1=C(O)C(=O)C[C@@H]2[C@@]3(C)CC[C@](C)(C(=O)O)C[C@@H]3CC[C@]12C	3.41 µM	6.46 µM	2.1	1.9	3.05 µM	–
C[C@@H]1C(=O)CC[C@@H]2[C@@]3(C)CC[C@](C)([C@@H](O)CO)C[C@@H]3CC[C@]21C	23.9 µM	24.2 µM	2.4	1	10.2 µM	–
CC1=CC(=O)C[C@@H]2[C@@]3(C)CC[C@](C)(O)C[C@@H]3CC[C@@]12C	3.11 µM	13.2 µM	5.9	4.2	2.24 µM	–
C/C=C/C[C@@H](C)[C@@H](O)[C@H]1C(=O)N[C@@H](CC)C(=O)N(C)CC(=O)N(C)[C@@H](CC(C)C)C(=O)N[C@@H](C(C)C)C(=O)N(C)[C@@H](CC(C)C)C(=O)N[C@@H](C)C(=O)N[C@H](C)C(=O)N(C)[C@@H](CC(C)C)C(=O)N(C)[C@@H](CC(C)C)C(=O)N(C)[C@@H](C(C)C)C(=O)N1C [CYCLOSPORINE]	–	–	–	–	–	0.74 µM
